Measurements reported in patent US20110105472A1, “Diaminopyrimidines as crop protection agents” (Bayer CropScience AG, priority 2008, published 2011).

Key:
[1] = logP by LC-MS, method [b], acidic range pH 2.7; type: physicochemical; conditions: pH 2.7
[2] = system: Stellaria media (common chickweed); experiment: Herbicidal pre-emergence action (PE), STEME; type: in vivo; conditions: dose 1000 g/ha, visual assessment after 2 weeks
Source text: (§1) 1. Herbicidal Pre-Emergence Action (═Pe)
(§2) Seeds of monocotyledonous and dicotyledonous harmful plants are placed in sandy loam and covered with soil. The compounds according to the invention, formulated as emulsion concentrates (EC), are then, as an aqueous emulsion with a water application rate of 800 l/ha (converted), applied to the surface of the covering soil.
(§3) After the treatment, the pots are placed in a greenhouse and kept under good growth conditions for the test plants. The visual assessment of the damage on the test plants is carried out after a trial period of 2 weeks by comparison with untreated controls (herbicidal effect in percent (%): 100% effect=the plants have died, 0% effect=like control plants). CAPBP=Capsella bursa-pastoris (shepherd's purse), STEME=Stellaria media (common chickweed)

[3] = system: Stellaria media (common chickweed); experiment: Herbicidal post-emergence action (PO), STEME; type: in vivo; conditions: dose 1000 g/ha, rated visually after about 2 weeks
Protocol: (§4) 2. Herbicidal Post-Emergence Action (═PO)
(§5) Seeds of monocotyledonous and dicotyledonous harmful plants are placed in sandy loam, covered with soil and cultivated in a greenhouse under good growth conditions. About 2 weeks after sowing, the test plants are treated at the one-leaf stage. To this end, the compounds according to the invention, formulated as emulsion concentrates (EC), as an aqueous emulsion with a water application rate of 800 l/ha (converted), are sprayed onto the green parts of the plants. After the test plants have been kept in the greenhouse under optimum growth conditions for about 2 weeks, the effect of the preparations is rated visually in comparison to untreated controls (herbicidal effect in percent (%): 100% effect=the plants have died, 0% effect=like control plants). CAPBP=Capsella bursa-pastoris (shepherd's purse), STEME=Stellaria media (common chickweed), ABUTH=Abutilon theophrasti (velvetleaf), AMARE=Amaranthus retroflexus (redroot pigweed)

[4] = system: Capsella bursa-pastoris (shepherd's purse); experiment: Herbicidal post-emergence action (PO), CAPBP; type: in vivo; conditions: dose 1000 g/ha, rated visually after about 2 weeks
Protocol: as §4, §5

[5] = system: Capsella bursa-pastoris (shepherd's purse); experiment: Herbicidal pre-emergence action (PE), CAPBP; type: in vivo; conditions: dose 1000 g/ha, visual assessment after 2 weeks
Source text: as §1, §2, §3

Meloidogyne incognita = experiment: Meloidogyne test (spray treatment); type: in vivo; conditions: concentration 20 ppm; lettuce roots
Protocol: Containers are filled with sand, active compound solution, Meloidogyne incognita egg/larvae suspension and lettuce seeds. The lettuce seeds germinate and the plants develop. On the roots, galls are formed. After the desired period of time, the nematicidal activity is determined by the formation of galls in %. 100% means that no galls were found; 0% means that the number of galls on the treated plants corresponds to that of the untreated control.

[6] = system: Amaranthus retroflexus (redroot pigweed); experiment: Herbicidal post-emergence action (PO), AMARE; type: in vivo; conditions: dose 1000 g/ha, rated visually after about 2 weeks
Protocol: as §4, §5

[7] = system: Abutilon theophrasti (velvetleaf); experiment: Herbicidal post-emergence action (PO), ABUTH; type: in vivo; conditions: dose 1000 g/ha, rated visually after about 2 weeks
Protocol: as §4, §5

[8] = system: Spodoptera frugiperda larvae; experiment: Spodoptera frugiperda test (SPDFR spray application); type: in vivo; conditions: application rate 500 g/ha; maize plants
Protocol: Spodoptera frugiperda Test (SPDFR Spray Application)
Solvents: 78.0 parts by weight of acetone • • 1.5 parts by weight of dimethylformamide Emulsifier: 0.6 part by weight of alkylaryl polyglycol ether
Maize plants (Zea mays) are watered with an active compound preparation of the desired concentration and infected with Spodoptera frugiperda larvae.
After the desired period of time, the kill in % is determined. 100% means that all larvae have been killed; 0% means that none of the larvae have been killed.

| log p [1] | Structure (SMILES) | herbicidal effect STEME [2] [%] | herbicidal effect STEME [3] [%] | herbicidal effect CAPBP [4] [%] | herbicidal effect CAPBP [5] [%] | efficacy (nematicidal activity by formation of galls) (Meloidogyne incognita) [%] | herbicidal effect AMARE [6] [%] | herbicidal effect ABUTH [7] [%] | efficacy (kill in %) [8] [%] |
| --- | --- | --- | --- | --- | --- | --- | --- | --- | --- |
| 1.78[b] | CC(=O)Nc1ccc(Nc2ncc(Cl)c(NC3CCC3)n2)cc1Cl [Compound 118] | – | – | – | – | > 80 | – | – | – |
| 1.38[b] | CC(=O)Nc1cc(Nc2ncc(Cl)c(NC3CCC3)n2)ccc1C [Compound 142] | 70 | – | – | 80 | – | 80 | 70 | – |

The next lines start with the compound.

| Structure (SMILES) | log p [1] | herbicidal effect STEME [2] [%] | herbicidal effect STEME [3] [%] | herbicidal effect CAPBP [4] [%] | herbicidal effect CAPBP [5] [%] | efficacy (nematicidal activity by formation of galls) (Meloidogyne incognita) [%] | herbicidal effect AMARE [6] [%] | herbicidal effect ABUTH [7] [%] | efficacy (kill in %) [8] [%] |
| --- | --- | --- | --- | --- | --- | --- | --- | --- | --- |
| CS(=O)(=O)Cc1cccc(Nc2ncc(Br)c(NC3CCC3)n2)c1 [Compound 88] | 1.66[b] | 80 | 80 | 70 | 90 | – | – | – | – |
| O=C(O)c1ccc(Nc2ncc(Br)c(NC3CCC3)n2)cc1 [Compound 156] | 1.94[b] | 70 | – | – | 70 | – | – | – | – |
| CN(C)C(=O)c1ccc(Nc2ncc(C(F)(F)F)c(NC3CCC3)n2)cc1 [Compound 221] | 2.48[b] | – | – | – | – | – | – | – | ≥ 80 |
